The values below are quoted from earlier work in patent publication US20220310211A1, “NON-TRANSITORY COMPUTER-READABLE STORAGE MEDIUM, INFORMATION PROCESSING APPARATUS, AND INFORMATION PROCESSING METHOD” (FUJITSU LIMITED, priority 2021, published 2022).

SMILES strings stand for the structures.

For this data set the following is noted: PubChem AID 1006; binary Active/Inactive.

In the case of `Cc1cccc(Cc2cnc(O[Si](C)(C)C)[nH]2)c1C` [CID603597], the biological activity entry is reported as “Active”.
